Measurements: patent US4907606A, “Tobacco compositions, method and device for releasing essentially pure nicotine” (AB Leo, priority 1984, dated 1990)
Read-outs that look alike come from different tables or passages of the source.

Assay: Bioavailability: blood plasma nicotine levels after inhalation of air from the glass columns
Assay type: in vivo
Settings: human, inhaled or intranasal, test persons abstained from nicotine for 12 h, read-out: Plasma nicotine, peak value
Protocol: Untreated tobacco was used as reference.
The bioavailability of nicotine, i.e. the blood plasma nicotine levels, after inhalation of air from the glass columns prepared as described above at 65° C. and 75° C., respectively was also investigated. The test persons had abstained from smoking or having nicotine in any other way for 12 h before the test.

CN1CCCC1c1cccnc1 (centres unmarked) [nicotine]
Cmax (column at 65 °C): 5 ng/mL
Cmax (column at 75 °C): 10 to 15 ng/mL
